Several values for one entry are separate records, joined by “and”; a condition that tells them apart may be missing. Equal entries are not always repeated. Entries after “also recorded” stand apart in the source; their conditions may differ.
How the values were obtained:
[1] = tested on: HCT116 MTAP-deleted xenograft tumor; format: in vivo; conditions: for tumor growth inhibition (TGI): 30 mg/kg orally q.d. for 19 days; for tumor growth inhibition (TGI) / T/C (%) relative tumor proliferation rate: BALB/c nude mice, HCT116 MTAP−/− xenograft; for T/C (%) relative tumor proliferation rate / Tumor volume / Histopathological analysis (H&E staining) of tumor tissues: 30 mg/kg orally q.d.; for Tumor volume: mean ± SD, at end of study; for Histopathological analysis (H&E staining) of tumor tissues: xenograft tumor tissue
Procedure: The antitumor efficacy of compound 17 was evaluated in female BALB/c nude mice using a standardized tumor xenotransplantation model. Animals were maintained under specific-pathogen-free (SPF) conditions, and all experimental procedures adhered to institutional animal care protocols approved by the Institute of Radiation Medicine, the Chinese Academy of Medical Sciences, and Peking Union Medical College, complying with national guidelines for humane treatment. For tumor induction, 2 × 10^6 HCT-116 MTAP^−/− cells suspended in PBS were subcutaneously implanted into the right hind flank. Following a 7-day engraftment period, mice were stratified into three cohorts (n = 5/group) via block randomization performed by an independent researcher to minimize selection bias. Compound 17 was administered orally at 30 mg/kg once daily, using 5% DMSO + 10% Solutol HS-15 + 85% saline as the vehicle solution. The positive control AG-270 was dosed at the same regimen (30 mg/kg, orally, once daily) with identical vehicle composition. Tumor progression was monitored every other day through digital caliper measurements, with volumes calculated using the ellipsoid approximation formula: V = 0.5 × length × width^2.

[2] = Cytotoxicity of new compounds in HEK293A; format: cell-based; conditions: human, HEK293A cells
Parental HCT116 cells = test: Cellular antiproliferation assay (CCK8), parental HCT116; format: cell-based; conditions: Homo sapiens, HCT-116, 72 h, mean ± SD
MTAP−/− HCT116 cells = test: Cellular antiproliferation assay (CCK8), MTAP-deleted HCT116; format: cell-based; conditions: Homo sapiens, HCT-116, 72 h, mean ± SD
Procedure: Cell viability assays were performed using Cell Counting Kit-8 (CCK8). Briefly, the MTAP-deleted HCT116 cells (Horizon) were plated at 1000 cells per well in 96-well plates in RPMI-1640 medium with 10% FBS and 1% PS, and then incubated at 37 °C under a 5% CO2 atmosphere overnight. The stock solutions were serially diluted 3-fold in DMSO to obtain an eight-point dilution curve with final compound concentrations and test compounds added. After 72 h, 10 μL CCK-8 dye was added in each well and the cells were incubated for 2–4 h. […] was measured at 450 nm. Dose response curves were analyzed in GraphPad Prism 8.

MAT2A = MAT2A (Homo sapiens, UniProt P31153); test: MAT2A enzymatic assay (colorimetric Phosphate Assay Kit-PiColorLock); format: biochemical; conditions: for Maximum Inhibition (%): MAT2A enzymatic assay; for IC50: mean ± SD, at least three independent experiments, NA: no activity at 10 μM; for MAT2A inhibitory activity (in words): up to 10 μM
Chain of MAT2A (P31153 whole entry): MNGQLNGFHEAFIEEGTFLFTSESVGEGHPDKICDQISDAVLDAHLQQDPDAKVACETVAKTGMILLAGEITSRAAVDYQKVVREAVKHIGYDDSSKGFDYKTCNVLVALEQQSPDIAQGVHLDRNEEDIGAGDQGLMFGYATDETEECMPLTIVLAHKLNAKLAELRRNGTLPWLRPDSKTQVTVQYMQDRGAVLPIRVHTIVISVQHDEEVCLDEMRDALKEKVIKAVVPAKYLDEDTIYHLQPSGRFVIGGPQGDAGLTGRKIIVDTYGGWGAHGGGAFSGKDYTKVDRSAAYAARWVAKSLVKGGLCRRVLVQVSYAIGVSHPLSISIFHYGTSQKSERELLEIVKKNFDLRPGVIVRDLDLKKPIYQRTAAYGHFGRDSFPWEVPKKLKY
Procedure: The inhibition of MAT2A by each compound was determined using the colorimetric Phosphate Assay Kit-PiColorLock (#ab270004) as described previously. […] Assay measurements were performed in 1X buffer containing 50 mM Tris, 50 mM KCl, 10 mM MgCl2, and 0.05% Brij-35 (pH 8.0) in a final assay volume of 5 μL. A total of 2.5 μL of MAT2A protein with a final concentration of 20 μg/mL was added to each well of a 384 well assay plate containing 100 nL of each concentration of test compound dissolved in DMSO and incubated for 30 min at room temperature. ATP (100 μM final concentration) and L-Met (100 μM final concentration) were subsequently added and incubated for 30 min at room temperature. Then 20 μL of the phosphate assay kit substrate was added to each well, incubated at room temperature for 30 min, and then the absorbance was measured at 620 nm on a plate reader.

Row | IC50 (MAT2A) | Structure (SMILES) | IC50 [2] [µM] | Maximum Inhibition (%) (MAT2A) | also measured
1 | – | COc1ccc(-c2c(Nc3ccccn3)[nH]c3c(C4=CCCCC4)c(-c4ccccc4)nn3c2=O)cc1 [AG-270, reference compound] | – | – | tumor growth inhibition (TGI) [1]: 80.4%; T/C (%) relative tumor proliferation rate [1]: 22.9%; Tumor volume [1]: 351.9 ± 96.1 mm3; Histopathological analysis (H&E staining) of tumor tissues [1]: reduced cellular proliferation
2 | – | CCOC(=O)c1[nH]c2c(c1Cc1ccccc1)C(=O)CC(c1ccccc1)C2 (centres unmarked) [Compound 9, Ethyl 3-Benzyl-4-oxo-6-phenyl-4,5,6,7-tetrahydro-1H-indole-2-carboxylate] | > 100 | – | MAT2A inhibitory activity (in words) (MAT2A): no detectable activity; also recorded: inactive
3 | – | Cn1cc(C(=O)Nc2ccc3c(c2)OCO3)c2ccccc21 [Compound 14] | > 100 | – | MAT2A inhibitory activity (in words) (MAT2A): completely lost its binding affinity; also recorded: abolished activity entirely
4 | 4.6 ± 0.3 µM | CCOC(=O)c1[nH]c2c(c1Cc1ccccc1OC)C(=O)CC(c1ccc(OC)cc1)C2 (centres unmarked) [Compound A10] | 55.6 ± 7.8 | 65 | –
5 | – | CN(C)c1nc(=O)n(-c2ccccc2)c2cc(Cl)ccc12 [6 (AZ-28), AZ-28, reference compound] | – | – | IC50 (Parental HCT116 cells): 1.9 ± 0.2 µM; IC50 (MTAP−/− HCT116 cells): 0.35 ± 0.13 µM
6 | – | CCOC(=O)c1[nH]c2c(c1Cc1ccccc1)C(=O)CC(C)(C)C2 [Compound 10] | > 100 | – | MAT2A inhibitory activity (in words) (MAT2A): no detectable activity; also recorded: inactive
7 | 0.91 ± 0.09 µM | COc1ccc(NC(=O)c2ccc3scnc3c2)cc1 [Compound 15, N-(4-Methoxyphenyl)benzo[D]thiazole-5-carboxamide] | > 100 | 80 | IC50 (Parental HCT116 cells): > 10 µM; IC50 (MTAP−/− HCT116 cells): 2.2 ± 0.1 µM
8 | 15.6 ± 3.1 µM | CCOC(=O)c1c(C)c(C(=O)Nc2ccc(OC)cc2)c(C)n1C [Compound 11] | > 100 | – | –
9 | – | COc1ccc(NC(=O)c2cccc3ncsc23)cc1 [Compound 16, N-(4-Methoxyphenyl)benzo[D]thiazole-7-carboxamide] | > 100 | – | MAT2A inhibitory activity (in words) (MAT2A): complete loss of binding affinity; also recorded: abolished activity entirely
10 | 6.8 ± 0.2 µM | CCOC(=O)c1[nH]c2c(c1-c1ccccc1)C(=O)CC(c1ccccc1)C2 (centres unmarked) [Compound 8, Ethyl 4-Oxo-3,6-diphenyl-4,5,6,7-tetrahydro-1H-indole-2-carboxylate] | > 100 | 47 | –
11 | 0.78 ± 0.15 µM | COc1ccc(NC(=O)c2cccc(N3CCCCC3)c2)cc1 [Compound 18, N-(4-Methoxyphenyl)-3-(piperidin-1-Yl)benzamide] | > 100 | 72 | –

Row | Structure (SMILES) | IC50 (MAT2A) | IC50 [2] [µM] | Maximum Inhibition (%) (MAT2A) | also measured
12 | COc1ccc(NC(=O)c2cccc(-n3cccc3)c2)cc1 [Compound 17, N-(4-Methoxyphenyl)-3-(1H-pyrrol-1-Yl)benzamide] | 0.43 ± 0.06 µM | > 100 | 84 | IC50 (Parental HCT116 cells): > 10 µM; IC50 (MTAP−/− HCT116 cells): 1.4 ± 0.3 µM; tumor growth inhibition (TGI) [1]: 58.4%; T/C (%) relative tumor proliferation rate [1]: 44.4%; Tumor volume [1]: 659.9 ± 100.2 mm3; Histopathological analysis (H&E staining) of tumor tissues [1]: reduced cellular proliferation
13 | COc1ccc(NC(=O)c2cn(C)c3ccccc23)cc1 [Compound 13, N-(4-Methoxyphenyl)-1-methyl-1H-indole-3-carboxamide] | 2.1 ± 0.6 µM | > 100 | 82 | –
14 | COc1ccc(NC(=O)c2cn(C)c3ncccc23)cc1F [Compound A11] | 4.6 µM and 2.5 µM | > 100 | 76 | IC50 (Parental HCT116 cells): > 10 µM; IC50 (MTAP−/− HCT116 cells): 6 ± 0.4 µM
15 | CCn1cc(C(=O)Nc2ccc(OC)cc2)c2cccnc21 [Compound 12] | 2.9 ± 0.2 µM | > 100 | 86 | –
